What was measured:
[1] = test system: MCF-7 human breast cancer cell; assay: BrdU cell proliferation assay (Cell Signaling kit); assay type: cell-based; details: MCF7, 72 h, read-out: In vitro cell-inhibiting activity IC50 MCF-7
Method: Experimental method: cell proliferation assay was carried out by BrdU method (BrdU cell proliferation assay kit, Cell Signaling Technology Company).
Preparation of gradient dilution solutions of test compound: the stock solution containing 10 mM test compound was subjected to 4-fold stepwise dilution with DMSO to prepare solutions containing 2.5 mM, 625 μM, 156 μM, 39 μM, 9.8 μM, and 2.5 μM test compound, respectively. 2 μL DMSO-diluted compound was added to 198 μL culture medium containing 10% FBS to prepare […] test compound, wherein the maximum concentration of the test compound was 100 μM, the concentration of DMSO was 1%, and there were 7 concentration gradients.
MCF-7 medium: DMEM+10% FBS+0.01 mg/mL insulin
(1) Cells grown to 80% confluence (in exponential growth phase) were digested with pancreatin, and centrifuged to collect the cells. MDA-MB-435S and U87MG cells were re-suspended in FBS-free culture medium, counted, and seeded to a 96-well plate; MDA-MB-435S cells were seeded at 3000 cells/well/81 μL; U87MG cells were seeded at 4000 cells/well/81 MCF-7 cells were resuspended in culture medium containing 1% FBS, and counted and seeded to a 96-well plate, at 4000 cell/well/82 μL. The plates were placed in a cell incubator at 37° C. […]
(9) To each well, stop solution (100 μL) was added, and OD value at 450 nm was measured by ELISA instrument […]

MV-4-11 leukemia cell = assay: BrdU cell proliferation assay (PerkinElme kit); assay type: cell-based; details: Homo sapiens, MV4-11, 48 h; read-out: In vitro cell-inhibiting activity IC50 MV-4-11
Method: Experimental method: cell proliferation assay was carried out by BrdU method (BrdU cell proliferation assay kit, PerkinElme Company).
Preparation of gradient dilution solutions of test compound: the stock solution containing 5 mM test compound was diluted by DMSO to prepare a 2 mM solution, then was subjected to 4-fold stepwise dilution to 9 concentration gradients.
MV-4-11 medium: IMDM+10% FBS
(1) Cells grown to exponential growth phase were digested with pancreatin, and centrifuged to collect the cells. The adherent cells were re-suspended in the corresponding culture medium, counted, and seeded to a 96-well plate; H358 cells and SW780 cells were seeded at 4000 cells/well/100 μL; PC3 cells were seeded at 1500 cells/well/100 μL; H441 cells were seeded at 6000 cells/well/100 μL. The plates were placed in a cell incubator at 37° C. After the cells adhered to the wall, the medium was replaced by serum-free medium. The suspended cells MV-4-11 and JeKo-1 were re-suspended with serum-free medium, counted, seeded to a 96-well plate by 10000 cells/well/100 μL and placed in a cell incubator overnight at 37° C. with 5% CO2. […]
(6) To each well, 200 μL of DELFIA Inducer was added and incubated for 15 min at room temperature. Value of fluorescence (Flu) was measured by ELISA instrument […]

CDK4/D3 = CDK4/D3 (Homo sapiens, UniProt P11802); assay: In vitro enzyme-inhibiting activity, Caliper Mobility Shift method; assay type: biochemical; details: read-out: CDK enzyme-inhibiting activity IC50 CDK4/D3
Sequence of CDK4/D3 (P11802 whole entry): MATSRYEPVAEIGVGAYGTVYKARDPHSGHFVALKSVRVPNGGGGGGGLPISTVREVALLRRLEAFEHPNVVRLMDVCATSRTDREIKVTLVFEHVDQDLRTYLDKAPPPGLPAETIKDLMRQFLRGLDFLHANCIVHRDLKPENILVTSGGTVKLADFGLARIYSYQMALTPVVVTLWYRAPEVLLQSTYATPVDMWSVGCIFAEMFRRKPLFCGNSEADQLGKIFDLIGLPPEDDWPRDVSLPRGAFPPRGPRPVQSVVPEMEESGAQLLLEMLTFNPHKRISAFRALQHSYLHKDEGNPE
Sequence of CDK4/D3 (P30281 whole entry partner): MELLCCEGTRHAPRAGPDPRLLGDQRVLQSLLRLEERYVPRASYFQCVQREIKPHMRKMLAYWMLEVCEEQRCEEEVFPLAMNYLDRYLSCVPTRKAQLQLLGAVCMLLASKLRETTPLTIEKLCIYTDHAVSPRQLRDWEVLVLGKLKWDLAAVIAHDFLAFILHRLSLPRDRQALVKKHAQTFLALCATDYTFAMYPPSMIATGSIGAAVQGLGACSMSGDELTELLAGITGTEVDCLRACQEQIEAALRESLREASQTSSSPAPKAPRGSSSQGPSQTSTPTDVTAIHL
Method: Measurement of activity for inhibiting CDK4/6 kinase by Caliper Mobility Shift method.
1) Preparation of 1-Fold Buffer for CDK4 Kinase 800 μL stock solution containing 1000 mM HEPES (pH 7.5), and 40 μL stock solution containing 10% Triton X-100, were added to 39160 μL ultra pure water, and the resultant mixture was mixed homogeneously.
25 mL stock solution containing 4% Coating Reagent #3 (provided with the 12-sipper chip used in Caliper device), 50 mL stock solution containing 1000 mM HEPES (pH 7.5), 50 mL stock solution containing 0.5 M EDTA, and 0.25 mL stock solution containing 30% Brij-35, were added to 374.75 mL ultra pure water, and the resultant mixture was mixed homogeneously.
7 μL CDK4/D3 enzyme solution, and 9 μL stock solution containing 1M DTT were added to 1784 μL 1-fold CDK4 kinase buffer, and the resultant mixture was mixed homogeneously.
10 μL stock solution containing 100 mM ATP, 45 μL stock solution containing 1M MgCl2, and 45 μL FAM-tagged polypeptide 8, were added to 1700 μL 1-fold CDK4 kinase buffer, and the resultant mixture was mixed homogeneously.
DMSO solution containing 10 mM test compound was diluted with DMSO to a solution containing 50 μM test compound (which was used as a stock solution).
1) 5 μL 5-fold test compound solution and 10 μL 2.5-fold kinase solution were added to the corresponding wells in a 384-well plate, and incubated at room temperature for 10 min.
2) To the corresponding wells, 10 μL 2.5-fold polypeptide solution was added to start the enzymatic reaction, and incubation was performed at 28° C. for 5 h.
To the corresponding wells, 25 μL stop solution was added to stop the reaction.
The data was read by Caliper device, the inhibition rate was calculated by the following formula, and curve fitting was carried out by GraphPad5.0 software to get IC50 value. Inhibition rate=(maximal value−sample value)/(maximal value−minimal value)×100, wherein, maximal value: positive control without addition of test compound; minimal value: negative control without addition of enzyme.

Work on `CCN1CCN(Cc2ccc(Nc3ncc(F)c(-c4cc(F)c5nc(C)n(C(C)C)c5c4)n3)nc2)CC1` [LY2835219, reference compound] yielded an IC50 [1] of 176 nM.

In the case of `CCN1CCN(Cc2cnc(Nc3cc(-c4cc(F)c5nc(C)n(C(C)C)c5c4)c(F)cn3)nc2)CC1` [Compound 1, 5-((4-ethylpiperazin-1-yl)methyl)-N-(5-fluoro-4-(4-fluoro-1-isopropyl-2-methyl-1H-benzo[d]imidazol-6-yl)pyridin-2-yl)pyrimidin-2-amine], the IC50 (MV-4-11 leukemia cell) is reported as 139 nM and the IC50 (CDK4/D3) is reported as 2.7 nM.

Source: patent US9949976B2, “Kinase inhibitor and use thereof” (Sihuan Pharmaceutical Holdings Group Ltd., priority 2013, dated 2018)
